From PMC6201295 (Leukemia & lymphoma, 2018)
Like-named read-outs stand apart in the source and are kept apart here.

Tests used:
NAT = conditions: cited from earlier work
CYP2E1 = conditions: cited from earlier work
[1] = Plasma pharmacokinetics of ATRA in study patients; type: in vivo; conditions: human, oral, 22.5 mg/m2
non-APL AML blast cells = conditions: blasts from more than half of 23 non-APL AML patients; cited from earlier work
[2] = cited from earlier work
[3] = Plasma pharmacokinetics of dasatinib in study patients
CYP3A4 = conditions: liver microsome CYP3A4; cited from earlier work
CYP2C8 = conditions: liver microsome CYP2C8; cited from earlier work
[4] = between- and within patient variability

SMILES: CC1=C(/C=C/C(C)=C/C=C/C(C)=C/C(=O)O)C(C)(C)CCC1 [ATRA, all-trans retinoic acid]
- increase of the activity of NAT (NAT): 29%
- increase of the activity of CYP2E1 (CYP2E1): 83%
- AUC(0-inf) [1]: 594 ng·h/mL
- AUC(0-t) [1]: 578 ng·h/mL
- Cmax [1]: 277 ng/mL
- Tmax [1]: 1.6 h
- Vd [1]: 101 L
- clearance [1]: 737 mL/min
- half-life [1]: 0.81 h
- sensitivity of blasts to ATRA in vitro (non-APL AML blast cells): moderately sensitive

SMILES: Cc1nc(Nc2ncc(C(=O)Nc3c(C)cccc3Cl)s2)cc(N2CCN(CCO)CC2)n1 [Dasatinib]
- Cmax ([2]; after a 100 mg dose, (SD)): 56 (SD 66) ng/mL
- time of Cmax ([2]; after a 100 mg dose): 1.5 h
- increase in dasatinib exposure ([3]; 2 patients, after a month of combination therapy): ~50%
- Cmax ([3]; dasatinib 100 mg, with ATRA, mean (SD), N=3): 103 (49) ng/mL
- clearance ([3]; human, plasma, oral): 6750 mL/min
- half-life ([3]; human, plasma, oral): 2.8 h
- AUC(0-inf) ([3]; human, plasma, oral, 70 mg): 206 ng·h/mL
- AUC(0-t) ([3]; human, plasma, oral, 70 mg): 178 ng·h/mL
- Cmax ([3]; human, plasma, oral, 70 mg): 77 ng/mL
- Vd ([3]; human, plasma, oral, 70 mg): 2310 L
- clearance ([3]; human, plasma, oral, 70 mg): 8170 mL/min
- half-life ([3]; human, plasma, oral, 70 mg): 2.9 h
- Tmax ([3]; human, plasma, oral, 70 mg, dasatinib 70 mg, with ATRA, mean (SD), N=6): 1.7 h
- AUC(0-inf) ([3]; human, plasma, oral, 100 mg): 434 ng·h/mL
- AUC(0-t) ([3]; human, plasma, oral, 100 mg): 373 ng·h/mL
- Vd ([3]; human, plasma, oral, 100 mg): 1070 L
- clearance ([3]; human, plasma, oral, 100 mg): 3920 mL/min
- Tmax ([3]; human, plasma, oral, 100 mg, dasatinib 100 mg, with ATRA, mean (SD), N=3): 2.5 h
